Assay: xn = mol fraction of the nth substance listed
Settings: 101 kPa, Liquid; for viscosity: Capillary tube (Ostwald / Ubbelohde) method; for speed of sound: Frequency=2 MHz, Linear variable-path acoustic interferometer; for mass density: Vibrating tube method

NCCO [2-aminoethan-1-ol] + C1COCCO1
Settings	mass density, 298.15 K [kg/m3]	mass density, 308.15 K [kg/m3]	mass density, 318.15 K [kg/m3]	speed of sound, 298.15 K [m/s]	viscosity, 298.15 K [mPa·s]	viscosity, 308.15 K [mPa·s]	viscosity, 318.15 K [mPa·s]
x2 = 0	1011.79	1004.68	998.15	1716.8	18.95	11.96	7.913
x2 = 0.0597	1015.53	1007.5	1000.35	1696.8	16.05	10.32	6.94
x2 = 0.1251	1018.05	1010.07	1001.77	1677.7	13.39	8.772	6.01
x2 = 0.1969	1020.39	1011.65	1003.06	1654.2	10.97	7.34	5.132
x2 = 0.276	1022.47	1013.21	1004.08	1626.7	8.798	6.031	4.321
x2 = 0.3639	1024.23	1014.47	1004.75	1593.6	6.892	4.851	3.555
x2 = 0.4618	1025.64	1015.23	1004.92	1557.5	5.249	3.804	2.867
x2 = 0.5716	1026.41	1015.49	1005.06	1517.9	3.868	2.898	2.255
x2 = 0.6958	1027.09	1015.74	1004.96	1471.8	2.739	2.132	1.719
x2 = 0.8373	1027.58	1016.22	1005.1	1417.1	1.849	1.506	1.266

ClCCCl [1,2-dichloroethane] + C1COCCO1
Settings	mass density, 298.15 K [kg/m3]	mass density, 308.15 K [kg/m3]	mass density, 318.15 K [kg/m3]	speed of sound, 298.15 K [m/s]	viscosity, 298.15 K [mPa·s]	viscosity, 308.15 K [mPa·s]	viscosity, 318.15 K [mPa·s]
x2 = 0	1246.37	1231.21	1214.55	1193.6	0.7804	0.6744	0.5719
x2 = 0.0934	1221.34	1206.17	1189.14	1198.9	0.8045	0.6918	0.5856
x2 = 0.1881	1197.17	1182.34	1164.97	1204.7	0.8332	0.7127	0.6042
x2 = 0.2843	1173.99	1159.5	1141.96	1211.7	0.864	0.737	0.6266
x2 = 0.3819	1151.77	1137.63	1120	1218.7	0.8974	0.7628	0.6499
x2 = 0.4258	1142.09	1128.16	1110.67	1222.7	0.9132	0.7747	0.6611
x2 = 0.5816	1109.56	1096.17	1079.43	1240.4	0.9729	0.8211	0.705
x2 = 0.6838	1089.25	1076.38	1060.46	1256.1	1.016	0.8551	0.7374
x2 = 0.7875	1069.16	1056.58	1042.21	1277.4	1.064	0.8949	0.775
x2 = 0.8929	1048.86	1036.88	1024.08	1306.8	1.117	0.9435	0.8234

NCCN [ethane-1,2-diamine] + C1COCCO1
Settings	mass density, 298.15 K [kg/m3]	mass density, 308.15 K [kg/m3]	mass density, 318.15 K [kg/m3]	speed of sound, 298.15 K [m/s]	viscosity, 298.18 K [mPa·s]	viscosity, 308.15 K [mPa·s]	viscosity, 318.15 K [mPa·s]
x2 = 0	894.79	885.63	867.62	1670.8	1.276	1.107	0.9445
x2 = 0.08	907.17	897.75	880.1	1625.9	1.263	1.092	0.9318
x2 = 0.1636	919.48	909.85	892.74	1585.3	1.25	1.078	0.9205
x2 = 0.2511	931.76	921.06	905.51	1546.2	1.239	1.066	0.9111
x2 = 0.3428	944.28	934.33	918.46	1506.8	1.228	1.053	0.9021
x2 = 0.385	949.92	939.89	924.35	1488.8	1.223	1.048	0.8983
x2 = 0.5399	970.35	959.96	945.42	1428.4	1.206	1.033	0.8929
x2 = 0.6461	984.1	973.48	959.55	1395.1	1.197	1.026	0.8913
x2 = 0.7578	998.37	987.59	974.27	1369.6	1.189	1.019	0.8918
x2 = 0.8756	1013.03	1002.04	989.43	1353.7	1.182	1.016	0.8902
